For 34 compounds, IC50 results are on record in patent US7026339B2, “Inhibitors of HCV NS5B polymerase” (priority 2003, dated 2006).

One may read the IC50 as the concentration that inhibits the measured activity by half.

In this test the test system is HuH-7 replicon cells 5–15 and 9–13 (HCV replication). Nature of the test: Inhibition of viral replication in HuH-7 replicon cells (HCV RNA / GAPDH RNA by multiplex RT-PCR). The class given is cell-based. As to conditions: Hepatitis C virus, 72 h; inhibiting 50% of replication; HuH-7 replicon cells, 3 days; read-out: IC50. A digest of the protocol: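 HCV and GAPDH RNA were measured by multiplex TaqMan RT-PCR (HCV 5′ untranslated region) after 3-day compound treatment at 37 °C, final 100 μM–1 μM in 1% DMSO. Cells were plated 24 h beforehand at 7×10^3/well. Read-out: HCV-to-GAPDH ratio expressed as percent control versus untreated cells.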
Consider `COc1cccc(CC(=O)N/N=C/c2ccncc2OS(=O)(=O)c2ccc(C(F)(F)F)cc2)c1` [Compound 230, 4-((E)-{2-[2-(3-methoxyphenyl)acetyl]hydrazono}methyl)-pyridin-3-yl 4-(trifluoromethyl)benzenesulfonate], for which the IC50 was below 5 µM. Turning to `CC(=O)Nc1ccc(CNc2cccc(CC(=O)N/N=C/c3ccccc3OS(=O)(=O)c3ccc(C(F)(F)F)cc3)c2)cc1` [Compound 99, 2-((E)-{2-[2-(3-{[4-(acetylamino)benzyl]amino}phenyl)acetyl]-hydrazono}methyl)phenyl 4-(trifluoromethyl)benzenesulfonate], the IC50 is below 5 µM. The value for `COc1cccc(CC(=O)N/N=C/c2ccccc2OS(=O)(=O)c2ccc(N3CCOCC3)nc2)c1` [Compound 216, 2-((E)-{2-[2-(3-methoxyphenyl)acetyl]hydrazono}methyl)-phenyl 6-morpholin-4-ylpyridine-3-sulfonate] was 5 to 50 µM; that for `COc1cccc(CC(=O)N/N=C/c2c(OC)cccc2OS(=O)(=O)c2ccc(C(F)(F)F)cc2)c1` [Compound 170, 3-methoxy-2-((E)-{[(3-methoxyphenyl)acetyl]hydrazono}methyl)-phenyl 4-(trifluoromethyl)benzenesulfonate] was below 5 µM. The same measure for `O=C(Cc1ccccc1)N/N=C/c1ccccc1OS(=O)(=O)c1ccc(F)cc1Cl` [Compound 137, 2-{(E)-[2-(2-phenylacetyl)hydrazono]methyl}phenyl 2-chloro-4-fluorobenzenesulfonate]: 5 to 50 µM; for `O=C(Cc1ccc(Br)cc1)N/N=C/c1ccccc1OS(=O)(=O)c1ccc(C(F)(F)F)cc1` [Compound 52, 2-((E)-{2-[2-(4-bromophenyl)acetyl]hydrazono}methyl)-phenyl 4-(trifluoromethyl)benzenesulfonate]: below 5 µM; for `O=C(Cc1ccccc1)N/N=C/c1ccccc1OS(=O)(=O)c1cc(Cl)cc(Cl)c1` [Compound 126, 2-{(E)-[2-(2-phenylacetyl)hydrazono]methyl}phenyl3,5-dichlorobenzenesulfonate]: 5 to 50 µM. Turning to `O=C(Cc1ccccc1)N/N=C/c1ccccc1OS(=O)(=O)c1cccc2ccccc12` [Compound 136, 2-{(E)-[2-(2-phenylacetyl)hydrazono]methyl}phenylnaphthalene-1-sulfonate], the IC50 is above 50 µM.

With `O=C(COc1ccccc1)N/N=C/c1ccccc1OS(=O)(=O)c1ccc(C(F)(F)F)cc1` [Compound 64, 2-{(E)-[2-(2-phenoxyacetyl)hydrazono]methyl}phenyl4-(trifluoromethyl)benzenesulfonate], the IC50 was below 5 µM. In the case of `CSc1ccc(CC(=O)N/N=C/c2ccccc2OS(=O)(=O)c2ccc(C(F)(F)F)cc2)cc1` [Compound 26, 2-[(E)-(2-{2-[4-(methylthio)phenyl]acetyl}hydrazono)methyl]-phenyl 4-(trifluoromethyl)benzenesulfonate], the IC50 is below 5 µM. Take `O=C(N/N=C/c1ccccc1OS(=O)(=O)c1ccc(C(F)(F)F)cc1)c1cccnc1` [Compound 76, 2-{(E)-[2-(pyridin-3-ylcarbonyl)hydrazono]methyl}phenyl 4-(trifluoromethyl)benzenesulfonate]: the IC50 was 5 to 50 µM.

Consider `COc1cccc(CC(=O)N/N=C/c2ccccc2OS(=O)(=O)c2ccc(OC)cc2OC)c1` [Compound 154, 2-((E)-{2-[2-(3-methoxyphenyl)acetyl]hydrazono}methyl)-phenyl 2,4-dimethoxybenzenesulfonate], for which the IC50 is below 5 µM. For the compound `O=C(Cc1cccc(Cl)c1)N/N=C/c1ccccc1OS(=O)(=O)c1ccc(C(F)(F)F)cc1` [Compound 148, 2-((E)-{2-[2-(3-chlorophenyl)acetyl]hydrazono}methyl)-phenyl 4-(trifluoromethyl)benzenesulfonate], the IC50 is below 5 µM. The same measure for `COc1cccc(CC(=O)N/N=C/c2cccc(OC)c2OS(=O)(=O)c2ccc(C)cc2)c1` [Compound 160, 2-methoxy-6-((E)-{[(3-methoxyphenyl)acetyl]hydrazono}methyl)-phenyl 4-methylbenzenesulfonate]: 5 to 50 µM; for `COc1cccc(CC(=O)N/N=C/c2c(Cl)cccc2OS(=O)(=O)c2ccc(C(F)(F)F)cc2)c1` [Compound 193, 3-chloro-2-((E)-{[(3-methoxyphenyl)acetyl]hydrazono}methyl)-phenyl 4-(trifluoromethyl)benzenesulfonate]: below 5 µM; for `O=C(Cc1ccccc1)N/N=C/c1ccccc1OS(=O)(=O)c1ccccc1` [Compound 108, 2-{(E)-[2-(2-phenylacetyl)hydrazono]methyl}phenylbenzenesulfonate]: above 50 µM. Take `O=C(Cc1nc(-c2cnccn2)no1)N/N=C/c1ccccc1OS(=O)(=O)c1ccc(C(F)(F)F)cc1` [Compound 82, 2-((E)-{2-[2-(3-pyrazin-2-yl-1,2,4-oxadiazol-5-yl)acetyl]hydrazono}methyl)phenyl 4-(trifluoromethyl)benzenesulfonate]: the IC50 was 5 to 50 µM. Consider `COc1ccc(S(=O)(=O)Oc2ccccc2/C=N/NC(=O)Cc2cccc(OC)c2)cc1` [Compound 151, 2-((E)-{2-[2-(3-methoxyphenyl)acetyl]hydrazono}methyl)-phenyl 4-methoxybenzenesulfonate], for which the IC50 was below 5 µM. The value for `CCc1ccc(S(=O)(=O)N/N=C/c2ccccc2OS(=O)(=O)c2ccc(C(F)(F)F)cc2)cc1` [Compound 105, 2-((E)-{2-[(4-ethylphenyl)sulfonyl]hydrazono}methyl)-phenyl 4-(trifluoromethyl)benzenesulfonate] was 5 to 50 µM; that for `O=C(Cc1ccncc1)N/N=C/c1ccccc1OS(=O)(=O)c1ccc(C(F)(F)F)cc1` [Compound 1, 2-{(E)-[2-(2-pyridin-4-ylacetyl)-hydrazono]methyl}phenyl 4-(trifluoromethyl)benzenesulfonate] was 5 to 50 µM; that for `COc1cccc(CC(=O)N/N=C/c2ccccc2S(=O)(=O)c2ccc(C)cc2)c1` [Compound 239, 2-(3-methoxyphenyl)-N′-((1E)-{2-[(4-methylphenyl)sulfonyl]phenyl}methylene)-acetohydrazide] was 5 to 50 µM. In the case of `CCOc1ccc(CC(=O)N/N=C/c2ccccc2OS(=O)(=O)c2ccc(C(F)(F)F)cc2)cc1` [Compound 67, 2-((E)-{2-[2-(4-ethoxyphenyl)acetyl]hydrazono}methyl)-phenyl 4-(trifluoromethyl)benzenesulfonate], the IC50 lay in the range of 5 to 50 µM. As to `O=C(Cc1c[nH]c2ccccc12)N/N=C/c1ccccc1OS(=O)(=O)c1ccc(C(F)(F)F)cc1` [Compound 3, 2-((E)-{2-[2-(1H-indol-3-yl)-acetyl]hydrazono}methyl)phenyl 4-(trifluoromethyl)benzene-sulfonate], the IC50 was below 5 µM. For `O=C(Cc1ccccc1)N/N=C/c1ccccc1OS(=O)(=O)c1ccccc1F` [Compound 112, 2-{(E)-[2-(2-phenylacetyl)hydrazono]methyl}phenyl 2-fluorobenzenesulfonate], the IC50 was above 50 µM. Regarding `O=C(CCCCc1ccccc1)N/N=C/c1ccccc1OS(=O)(=O)c1ccc(C(F)(F)F)cc1` [Compound 47, 2-{(E)-[2-(5-phenylpentanoyl)hydrazono]methyl}phenyl4-(trifluoromethyl)benzenesulfonate], the IC50 lay in the range of 5 to 50 µM. For the compound `O=C(Cc1ccccc1)N/N=C/c1ccccc1OS(=O)(=O)c1ccc2ccccc2c1` [Compound 119, 2-{(E)-[2-(2-phenylacetyl)hydrazono]methyl}phenylnaphthalene-2-sulfonate], the IC50 was below 5 µM. Turning to `COc1cccc(CC(=O)N/N=C/c2cc(Br)ccc2OS(=O)(=O)c2ccc(C(F)(F)F)cc2)c1` [Compound 166], the IC50 is below 5 µM.

Turning to `COc1cccc(CC(=O)N/N=C/c2c(F)cccc2OS(=O)(=O)c2ccc(C)cc2)c1` [Compound 208, 3-fluoro-2-((E)-{[(3-methoxyphenyl)acetyl]hydrazono}methyl)-phenyl 4-methylbenzenesulfonate], the IC50 was 5 to 50 µM. Take `O=C(N/N=C/c1ccccc1OS(=O)(=O)c1ccc(C(F)(F)F)cc1)c1c(F)cccc1F` [Compound 102, 2-{(E)-[2-(2,6-difluorobenzoyl)hydrazono]methyl}phenyl4-(trifluoromethyl)benzenesulfonate]: the IC50 is below 5 µM. The same measure for `O=C(Cc1cccc(Cl)c1)N/N=C/c1ncccc1OS(=O)(=O)c1ccc(C(F)(F)F)cc1` [Compound 213, 2-((E)-{2-[2-(3-chlorophenyl)acetyl]hydrazono}methyl)-pyridin-3-yl 4-(trifluoromethyl)benzenesulfonate]: 5 to 50 µM; for `O=S(=O)(Cc1cccc(Cl)c1)N/N=C/c1ccccc1OS(=O)(=O)c1ccc(C(F)(F)F)cc1` [Compound 250, 2-((E)-[2-[(3-chlorobenzyl)sulfonyl]hydrazono}methyl)-phenyl 4-(trifluoromethyl)benzenesulfonate]: 5 to 50 µM; for `O=C(CC1CCCO1)N/N=C/c1ccccc1OS(=O)(=O)c1ccc(C(F)(F)F)cc1` (stereo not shown) [Compound 95, 2-{(E)-[2-(2-tetrahydrofuran-2-ylacetyl)hydrazono]methyl}phenyl4-(trifluoromethyl)benzenesulfonate]: below 5 µM. As for `O=C(Cc1cccc(Cl)c1)N/N=C/c1ccc(F)cc1OS(=O)(=O)c1ccc(C(F)(F)F)cc1` [Compound 211, 2-((E)-{[(3-chlorophenyl)acetyl]hydrazono}methyl)-5-fluorophenyl 4-(trifluoromethyl)benzenesulfonate], the concentration for half-maximal inhibition (IC50) was in the range of 5 to 50 µM.

With `O=C(Cc1c(F)cccc1C(F)(F)F)N/N=C/c1ccccc1OS(=O)(=O)c1ccc(C(F)(F)F)cc1` [Compound 33, 2-[(E)-(2-{2-[2-fluoro-6-(trifluoromethyl)phenyl]acetyl}hydrazono)-methyl]phenyl 4-(trifluoromethyl)benzenesulfonate], the IC50 is below 5 µM.
